ChEMBL document CHEMBL3797082, “A multicomponent pharmacophore fragment-decoration approach to identify selective LRRK2-targeting probes” (Medchemcomm, 2016)
Active and inactive are the calls of the source. The rule behind the calls is not given here.

Assays:
[1] = system: Leucine-rich repeat serine/threonine-protein kinase 2 (Homo sapiens), Q5S007 [G2019S]; assay: Inhibition of human recombinant GST-tagged LRRK2 G2019S mutant (970 residues) expressed in baculovirus expression system using LRRKtide as substrate at 100 uM incubated for 10 mins by scintillation counting method in presence of [gamma33P]ATP
[2] = molecular target: Leucine-rich repeat serine/threonine-protein kinase 2 (Homo sapiens) (UniProt Q5S007); assay: Inhibition of human recombinant N-terminal GST-tagged LRRK2 (968 residues) expressed in baculovirus infected sf9 cells using LRRKtide as substrate at 100 uM incubated for 10 mins by scintillation counting method in presence of [gamma33P]ATP
[3] = molecular target: Phosphatidylinositol 4-kinase beta (Homo sapiens) (UniProt Q9UBF8); assay: Inhibition of full length human recombinant N-terminal GST-His-tagged PI4KB expressed in sf9 cells using phosphatidyl inositol:phosphatidyl serine (1:3) substrate at 100 uM by ADP-Glo kinase assay relative to control
Sequence of Phosphatidylinositol 4-kinase beta (Homo sapiens) (Q9UBF8 2-816 limits assumed): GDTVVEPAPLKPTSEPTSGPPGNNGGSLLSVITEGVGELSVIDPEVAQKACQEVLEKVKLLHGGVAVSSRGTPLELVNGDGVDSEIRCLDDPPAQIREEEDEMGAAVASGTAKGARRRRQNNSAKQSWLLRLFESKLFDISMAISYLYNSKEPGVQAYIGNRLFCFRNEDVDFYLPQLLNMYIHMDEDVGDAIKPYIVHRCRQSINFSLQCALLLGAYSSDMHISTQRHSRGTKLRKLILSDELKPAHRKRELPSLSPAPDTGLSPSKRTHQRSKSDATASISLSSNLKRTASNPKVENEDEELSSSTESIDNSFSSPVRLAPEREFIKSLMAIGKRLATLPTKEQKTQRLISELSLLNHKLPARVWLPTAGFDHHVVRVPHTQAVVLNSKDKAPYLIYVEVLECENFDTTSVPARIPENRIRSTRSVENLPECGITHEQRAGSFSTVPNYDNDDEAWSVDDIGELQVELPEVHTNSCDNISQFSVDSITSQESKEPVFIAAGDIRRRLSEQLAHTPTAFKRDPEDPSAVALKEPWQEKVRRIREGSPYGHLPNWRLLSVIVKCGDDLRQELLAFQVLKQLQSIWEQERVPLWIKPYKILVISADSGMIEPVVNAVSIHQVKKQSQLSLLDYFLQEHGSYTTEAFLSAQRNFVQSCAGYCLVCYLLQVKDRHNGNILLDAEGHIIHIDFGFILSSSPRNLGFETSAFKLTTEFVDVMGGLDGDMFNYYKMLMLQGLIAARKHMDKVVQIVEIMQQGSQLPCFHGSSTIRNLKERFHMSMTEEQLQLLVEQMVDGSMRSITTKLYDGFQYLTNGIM

[4] = molecular target: Tyrosine-protein kinase HCK (Homo sapiens) (UniProt P08631); assay: Inhibition of full length human recombinant N-terminal GST-His6-tagged HCK (M1 to P505 residues) expressed in baculovirus infected sf9 cells using KVEKIGEGTYGVVYK as substrate at 100 uM incubated for 10 mins by scintillation counting method relative to control
Sequence of Tyrosine-protein kinase HCK (Homo sapiens) (P08631 2-526 limits assumed): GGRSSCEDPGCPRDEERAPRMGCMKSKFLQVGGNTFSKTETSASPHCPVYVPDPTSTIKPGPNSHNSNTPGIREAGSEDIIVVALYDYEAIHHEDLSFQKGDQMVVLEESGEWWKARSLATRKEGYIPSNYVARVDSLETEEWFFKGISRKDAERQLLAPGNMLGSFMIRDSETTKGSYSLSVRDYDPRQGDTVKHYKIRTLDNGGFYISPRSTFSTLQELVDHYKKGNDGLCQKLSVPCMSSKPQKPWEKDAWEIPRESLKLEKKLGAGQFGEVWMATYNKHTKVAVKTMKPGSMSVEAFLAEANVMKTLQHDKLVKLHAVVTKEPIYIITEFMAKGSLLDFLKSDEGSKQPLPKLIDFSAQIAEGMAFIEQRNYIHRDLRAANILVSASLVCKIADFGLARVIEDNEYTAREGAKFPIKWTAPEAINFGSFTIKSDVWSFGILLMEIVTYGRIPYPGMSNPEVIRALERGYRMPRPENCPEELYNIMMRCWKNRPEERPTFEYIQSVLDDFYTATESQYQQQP

[5] = molecular target: Serine/threonine-protein kinase pim-1 (Homo sapiens) (UniProt P11309); assay: Inhibition of full length human recombinant N-terminal GST-tagged PIM1 expressed in Escherichia coli using S6 Kinase/Rsk2 peptide2 as substrate at 100 uM incubated for 10 mins by scintillation counting method relative to control
[6] = molecular target: Receptor-type tyrosine-protein kinase FLT3 (Homo sapiens) (UniProt P36888); assay: Inhibition of human recombinant N-terminal GST-His6-tagged FLT3 (R571-S993 residues) expressed in baculovirus infected sf9 cells using KVEKIGEGTYGVVYK as substrate at 100 uM incubated for 10 mins by scintillation counting method relative to control
Sequence of Receptor-type tyrosine-protein kinase FLT3 (Homo sapiens) (P36888 whole entry, the tested form may be a part): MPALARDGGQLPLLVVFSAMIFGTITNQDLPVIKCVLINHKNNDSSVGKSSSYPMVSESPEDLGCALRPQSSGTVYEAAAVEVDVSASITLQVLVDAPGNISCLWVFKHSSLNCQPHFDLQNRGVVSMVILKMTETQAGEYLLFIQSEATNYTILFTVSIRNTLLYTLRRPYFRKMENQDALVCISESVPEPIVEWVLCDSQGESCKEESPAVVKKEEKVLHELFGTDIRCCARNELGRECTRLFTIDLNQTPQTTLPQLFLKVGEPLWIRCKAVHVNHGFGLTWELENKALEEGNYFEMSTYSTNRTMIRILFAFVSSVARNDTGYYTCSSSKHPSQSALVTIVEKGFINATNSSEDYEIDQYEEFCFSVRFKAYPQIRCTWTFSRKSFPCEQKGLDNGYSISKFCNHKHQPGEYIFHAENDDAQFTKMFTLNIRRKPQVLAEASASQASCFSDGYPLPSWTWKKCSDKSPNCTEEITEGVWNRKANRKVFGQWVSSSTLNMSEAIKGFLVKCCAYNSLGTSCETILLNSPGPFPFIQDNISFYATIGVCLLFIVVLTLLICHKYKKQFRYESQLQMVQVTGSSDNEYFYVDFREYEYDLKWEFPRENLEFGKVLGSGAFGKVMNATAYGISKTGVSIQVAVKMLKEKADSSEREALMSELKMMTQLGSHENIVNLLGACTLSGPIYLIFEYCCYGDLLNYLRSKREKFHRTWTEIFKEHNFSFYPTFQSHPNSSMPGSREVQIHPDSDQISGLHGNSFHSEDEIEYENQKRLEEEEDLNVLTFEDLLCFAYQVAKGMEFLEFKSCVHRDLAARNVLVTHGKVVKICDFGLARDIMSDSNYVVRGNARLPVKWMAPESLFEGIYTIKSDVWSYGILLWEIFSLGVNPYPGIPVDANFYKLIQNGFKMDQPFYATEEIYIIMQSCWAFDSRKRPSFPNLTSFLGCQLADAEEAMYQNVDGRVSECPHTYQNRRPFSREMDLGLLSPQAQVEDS

[7] = molecular target: Tyrosine-protein kinase ABL1 (Homo sapiens) (UniProt P00519); assay: Inhibition of human recombinant N-terminal His-tagged ABL (27 residues) expressed in baculovirus infected sf9 cells using KKGEAIYAAPFA-NH2 as substrate at 100 uM incubated for 10 mins by scintillation counting method relative to control
Sequence of Tyrosine-protein kinase ABL1 (Homo sapiens) (P00519 whole entry, the tested form may be a part): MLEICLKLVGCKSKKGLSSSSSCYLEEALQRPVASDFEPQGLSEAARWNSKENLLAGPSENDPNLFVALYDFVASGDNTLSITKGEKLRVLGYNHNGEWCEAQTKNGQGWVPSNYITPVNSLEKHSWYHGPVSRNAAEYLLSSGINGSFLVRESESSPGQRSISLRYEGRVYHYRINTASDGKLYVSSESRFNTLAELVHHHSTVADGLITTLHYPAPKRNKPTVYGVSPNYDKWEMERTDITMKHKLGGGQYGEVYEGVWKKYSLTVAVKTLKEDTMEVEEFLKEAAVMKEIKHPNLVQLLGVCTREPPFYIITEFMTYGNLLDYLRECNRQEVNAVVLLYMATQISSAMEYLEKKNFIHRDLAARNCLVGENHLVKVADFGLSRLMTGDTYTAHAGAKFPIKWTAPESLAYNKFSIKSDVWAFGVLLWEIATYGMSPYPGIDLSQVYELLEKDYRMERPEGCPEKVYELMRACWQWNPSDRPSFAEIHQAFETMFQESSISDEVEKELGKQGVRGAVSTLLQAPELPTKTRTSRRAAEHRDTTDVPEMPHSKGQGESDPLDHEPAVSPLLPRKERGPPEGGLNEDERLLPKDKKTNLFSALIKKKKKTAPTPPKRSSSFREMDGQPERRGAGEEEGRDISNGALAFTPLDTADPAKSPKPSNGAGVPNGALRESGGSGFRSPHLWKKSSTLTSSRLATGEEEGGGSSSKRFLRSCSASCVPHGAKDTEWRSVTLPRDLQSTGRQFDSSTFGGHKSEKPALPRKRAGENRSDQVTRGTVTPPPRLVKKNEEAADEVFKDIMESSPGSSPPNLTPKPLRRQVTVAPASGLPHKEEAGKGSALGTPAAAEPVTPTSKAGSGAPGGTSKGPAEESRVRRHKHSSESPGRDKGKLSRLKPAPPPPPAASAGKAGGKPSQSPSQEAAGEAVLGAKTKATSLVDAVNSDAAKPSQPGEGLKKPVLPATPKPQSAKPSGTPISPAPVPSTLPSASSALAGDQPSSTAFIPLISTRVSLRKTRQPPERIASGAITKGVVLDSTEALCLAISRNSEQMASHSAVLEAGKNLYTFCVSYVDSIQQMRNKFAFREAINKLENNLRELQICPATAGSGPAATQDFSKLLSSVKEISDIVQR

[8] = molecular target: Dual specificity tyrosine-phosphorylation-regulated kinase 1A (Rattus norvegicus) (UniProt Q63470); assay: Inhibition of recombinant rat N-terminal GST-tagged DYRK1A (1 to 499 residues) expressed in Escherichia coli using KKISGRLSPIMTEQ-NH2 as substrate at 100 uM incubated for 10 mins by scintillation counting method relative to control
[9] = molecular target: CDK2/Cyclin A2 (Homo sapiens) (UniProt P24941+P20248); assay: Inhibition of full length human recombinant N-terminal GST-tagged CDK2 (M1-L298 residues)/Cyclin A2 (M1-L432 residues) expressed in baculovirus infected sf9 cells using histone H1 as substrate at 100 uM incubated for 10 mins by scintillation counting method relative to control
[10] = system: Leucine-rich repeat serine/threonine-protein kinase 2 (Homo sapiens), Q5S007 [G2019S]; assay: Ratio of enzyme-substrate-inhibitor complex Ki to enzyme-inhibitor complex Ki for human recombinant GST-tagged LRRK2 G2019S mutant (970 residues) expressed in baculovirus expression system
[11] = molecular target: T1, Leucine-rich repeat serine/threonine-protein kinase 2 (Homo sapiens, UniProt Q5S007, G2019S); assay: Mixed type inhibition of human recombinant GST-tagged LRRK2 G2019S mutant (970 residues) expressed in baculovirus expression system assessed as enzyme-inhibitor complex by Michaelis-Menten kinetics in presence of varying level of ATP
[12] = Selectivity ratio of ID50 for human recombinant N-terminal GST-tagged LRRK2 (968 residues) expressed in baculovirus infected sf9 cells to ID50 for human recombinant GST-tagged LRRK2 G2019S mutant (970 residues) expressed in baculovirus expression system
[13] = molecular target: Cyclin-dependent kinase 4/cyclin D1 (Homo sapiens) (UniProt P11802+P24385); assay: Inhibition of full length human recombinant N-terminal GST-tagged CDK4/Cyclin D1 expressed in baculovirus infected sf9 cells using RB-CTF as substrate at 100 uM incubated for 10 mins by scintillation counting method relative to control
[14] = molecular target: Leucine-rich repeat serine/threonine-protein kinase 2 (Homo sapiens) (UniProt Q5S007); assay: Inhibition of human recombinant N-terminal GST-tagged LRRK2 (968 residues) expressed in baculovirus infected sf9 cells using LRRKtide as substrate incubated for 10 mins by scintillation counting method in presence of [gamma33P]ATP
[15] = molecular target: CDK6/cyclin D1 (Homo sapiens) (UniProt P24385+Q00534); assay: Inhibition of full length human recombinant N-terminal His-tagged CDK6/N-terminal GST-tagged Cyclin D1 expressed in baculovirus infected sf9 cells using RB-CTF as substrate at 100 uM incubated for 10 mins by scintillation counting method relative to control
[16] = system: Leucine-rich repeat serine/threonine-protein kinase 2 (Homo sapiens), Q5S007 [G2019S]; assay: Inhibition of human recombinant GST-tagged LRRK2 G2019S mutant (970 residues) expressed in baculovirus expression system using LRRKtide as substrate incubated for 10 mins by scintillation counting method in presence of [gamma33P]ATP
[17] = molecular target: Glycogen synthase kinase-3 beta (Homo sapiens) (UniProt P49841); assay: Inhibition of full length human recombinant N-terminal GST-tagged GSK3beta expressed in baculovirus infected sf9 cells using GSK3 substrate at 100 uM incubated for 10 mins by scintillation counting method relative to control
Sequence of Glycogen synthase kinase-3 beta (Homo sapiens) (P49841 whole entry, looked up): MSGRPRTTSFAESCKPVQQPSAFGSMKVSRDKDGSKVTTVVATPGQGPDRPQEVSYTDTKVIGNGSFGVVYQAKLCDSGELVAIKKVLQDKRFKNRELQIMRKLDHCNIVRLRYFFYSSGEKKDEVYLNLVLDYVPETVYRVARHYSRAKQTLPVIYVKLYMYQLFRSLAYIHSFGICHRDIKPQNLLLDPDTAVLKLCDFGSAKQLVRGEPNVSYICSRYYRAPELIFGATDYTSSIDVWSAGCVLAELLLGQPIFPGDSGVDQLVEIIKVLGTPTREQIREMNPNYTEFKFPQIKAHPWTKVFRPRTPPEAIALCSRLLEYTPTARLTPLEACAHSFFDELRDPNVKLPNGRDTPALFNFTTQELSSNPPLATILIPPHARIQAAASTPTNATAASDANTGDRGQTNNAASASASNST

[18] = system: Leucine-rich repeat serine/threonine-protein kinase 2 (Homo sapiens), Q5S007 [G2019S]; assay: Inhibition of human recombinant GST-tagged LRRK2 G2019S mutant (970 residues) expressed in baculovirus expression system using LRRKtide as substrate at 50 uM incubated for 10 mins by scintillation counting method in presence of [gamma33P]ATP
[19] = molecular target: CDK9/Cyclin K (Homo sapiens) (UniProt P50750+O75909); assay: Inhibition of full length human recombinant N-terminal GST-tagged CDK9/Cyclin K expressed in baculovirus infected sf9 cells using CDKtide as substrate at 100 uM incubated for 10 mins by scintillation counting method relative to control
[20] = molecular target: Focal adhesion kinase 1 (Homo sapiens) (UniProt Q05397); assay: Inhibition of human recombinant FAK expressed in baculovirus infected sf9 cells using KVEKIGEGTYGVVYK as substrate at 100 uM incubated for 10 mins by scintillation counting method relative to control
Sequence of Focal adhesion kinase 1 (Homo sapiens) (Q05397 2-1052 limits assumed): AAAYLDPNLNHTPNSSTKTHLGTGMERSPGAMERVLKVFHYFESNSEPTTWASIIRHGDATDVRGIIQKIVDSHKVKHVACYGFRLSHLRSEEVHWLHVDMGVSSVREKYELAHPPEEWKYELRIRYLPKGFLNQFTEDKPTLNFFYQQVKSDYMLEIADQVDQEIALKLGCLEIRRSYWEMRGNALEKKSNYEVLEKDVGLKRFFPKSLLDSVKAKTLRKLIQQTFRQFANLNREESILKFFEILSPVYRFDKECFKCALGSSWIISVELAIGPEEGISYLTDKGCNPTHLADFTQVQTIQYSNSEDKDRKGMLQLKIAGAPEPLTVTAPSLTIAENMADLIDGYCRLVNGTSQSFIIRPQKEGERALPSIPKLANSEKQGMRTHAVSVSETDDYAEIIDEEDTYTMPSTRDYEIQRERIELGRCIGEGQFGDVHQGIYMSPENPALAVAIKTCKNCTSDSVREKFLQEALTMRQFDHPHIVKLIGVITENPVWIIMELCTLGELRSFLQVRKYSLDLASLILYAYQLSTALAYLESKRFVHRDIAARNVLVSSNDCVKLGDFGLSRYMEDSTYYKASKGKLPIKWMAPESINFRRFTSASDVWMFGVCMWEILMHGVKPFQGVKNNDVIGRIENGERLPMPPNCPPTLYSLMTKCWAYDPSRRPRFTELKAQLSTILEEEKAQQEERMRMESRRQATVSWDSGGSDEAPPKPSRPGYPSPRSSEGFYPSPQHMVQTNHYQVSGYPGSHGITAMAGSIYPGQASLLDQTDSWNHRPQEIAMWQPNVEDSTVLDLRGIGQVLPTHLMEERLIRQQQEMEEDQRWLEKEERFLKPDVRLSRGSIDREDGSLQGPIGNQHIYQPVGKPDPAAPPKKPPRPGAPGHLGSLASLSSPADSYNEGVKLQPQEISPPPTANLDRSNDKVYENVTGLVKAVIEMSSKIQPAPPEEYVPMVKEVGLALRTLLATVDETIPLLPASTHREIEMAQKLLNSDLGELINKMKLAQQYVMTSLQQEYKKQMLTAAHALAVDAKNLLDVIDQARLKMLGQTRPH

[21] = molecular target: CDK9/cyclin T1 (Homo sapiens) (UniProt O60563+P50750); assay: Inhibition of full length human recombinant N-terminal GST-His6-tagged CDK9 (M1-F372 residues)/Cyclin T1 (M1-K726 residues) expressed in baculovirus infected sf9 cells using CDKtide as substrate at 100 uM incubated for 10 mins by scintillation counting method relative to control
[22] = molecular target: T1, Leucine-rich repeat serine/threonine-protein kinase 2; assay: Mixed type inhibition of human recombinant GST-tagged LRRK2 G2019S mutant (970 residues) expressed in baculovirus expression system assessed as enzyme-substrate-inhibitor complex by Michaelis-Menten kinetics in presence of varying level of ATP
[23] = molecular target: Leucine-rich repeat serine/threonine-protein kinase 2 (Homo sapiens) (UniProt Q5S007); assay: Inhibition of human recombinant N-terminal GST-tagged LRRK2 (968 residues) expressed in baculovirus infected sf9 cells using LRRKtide as substrate at 50 uM incubated for 10 mins by scintillation counting method in presence of [gamma33P]ATP
[24] = molecular target: Proto-oncogene tyrosine-protein kinase Src (Homo sapiens) (UniProt P12931); assay: Inhibition of full length human recombinant N-terminal His6-tagged SRC expressed in baculovirus infected sf21 cells using KVEKIGEGTYGVVYK as substrate at 100 uM incubated for 10 mins by scintillation counting method relative to control
[25] = molecular target: T1, Leucine-rich repeat serine/threonine-protein kinase 2; assay: Competitive inhibition of human recombinant GST-tagged LRRK2 G2019S mutant (970 residues) expressed in baculovirus expression system assessed as enzyme-inhibitor complex by Michaelis-Menten kinetics in presence of varying level of ATP

Compound | inhibition [1] | inhibition [2] | inhibition [3] [%] | inhibition [4] [%] | inhibition [5] [%] | inhibition [6] [%] | inhibition [7] [%] | inhibition [8] [%] | inhibition [9] [%] | Ki [11] [nM] | Selectivity ratio [12] | inhibition [13] [%] | ID50 [14] [nM] | inhibition [15] [%] | ID50 [16] [nM] | inhibition [17] [%] | inhibition [19] [%] | inhibition [20] [%] | inhibition [21] [%] | inhibition [24] [%] | also measured
COc1ccc(/C=N/Nc2nc(C)cc(C)c2C#N)cc1 | Active | Active | – | – | – | – | – | – | – | – | – | – | – | – | – | – | – | – | – | – | –
Cc1cc(N/N=C/c2ccc(OC(=O)c3ccc(N4CCN(C)CC4)cc3)cc2)nc2ccccc12 | inactive | inactive | – | – | – | – | – | – | – | – | – | – | – | – | – | – | – | – | – | – | –
Cc1cc(N/N=C/c2ccc(O)cc2)nc2ccccc12 | – | – | 31 | 0 | 43 | 62 | 24 | 22 | 12 | 550 | 2.4 | 16 | 2700 | 40 | 1300 | 0 | 24 | 13 | 0 | 21 | Ratio [10]: 5; inhibition [18]: Active; Ki [22]: 2590 nM; inhibition [23]: Active
COc1ccc(-c2nnc3c(NCCN4CCOCC4)cccn23)cc1OC | Active | Active | 3 | 0 | 29 | 0 | 19 | 26 | 22 | – | 3.5 | 10 | 32000 | 18 | 9100 | 14 | 38 | 8 | 24 | 40 | Ki [25]: 5610 nM
COc1ccc(/C=N/Nc2ncccc2Cl)cc1OC | Active | Active | – | – | – | – | – | – | – | – | – | – | – | – | – | – | – | – | – | – | –
C/C(=N\Nc1ccc2ccccc2n1)c1ccccc1O | – | – | 0 | 0 | 3 | 3 | 6 | 9 | 3 | 3450 | 7.5 | 7 | 32600 | 1 | 4800 | 1 | 2 | 1 | 1 | 5 | Ratio [10]: 5; inhibition [18]: Active; Ki [22]: 18400 nM; inhibition [23]: Active
COc1ccc(/C=N/Nc2ccccn2)cc1 | Active | Active | – | – | – | – | – | – | – | – | – | – | – | – | – | – | – | – | – | – | –
COc1ccc(/C=N/Nc2nc3c(c(-c4ccccc4)c2C#N)CCCC3)cc1 | Active | Active | – | – | – | – | – | – | – | – | – | – | – | – | – | – | – | – | – | – | –
COc1ccc(/C=N/Nc2cc(C)c3ccccc3n2)cc1 | – | – | 32 | 0 | 20 | 50 | 43 | 0 | 9 | 740 | 4 | 9 | 3000 | 42 | 900 | 0 | 53 | 11 | 0 | 31 | inhibition [18]: Active; Ki [22]: 1800 nM; inhibition [23]: Active
